In patent publication US20220380368A1, “SPIROCYCLIC ANDROGEN RECEPTOR PROTEIN DEGRADERS” (THE REGENTS OF THE UNIVERSITY OF MICHIGAN, priority 2019, published 2022):
Numbering of substitutions follows the chain as printed. Where two headings read alike, the source gives them in different places.

How the values were obtained:
AR protein [1] = target: T1, AR protein (Homo sapiens, UniProt P10275); assay: Western blotting analysis of AR protein levels in VCaP cells, band quantification, DC50/DC90; assay type: cell-based
T1 construct: endogenous in cells; host or cells: VCaP
T1 sequence (P10275 1-920): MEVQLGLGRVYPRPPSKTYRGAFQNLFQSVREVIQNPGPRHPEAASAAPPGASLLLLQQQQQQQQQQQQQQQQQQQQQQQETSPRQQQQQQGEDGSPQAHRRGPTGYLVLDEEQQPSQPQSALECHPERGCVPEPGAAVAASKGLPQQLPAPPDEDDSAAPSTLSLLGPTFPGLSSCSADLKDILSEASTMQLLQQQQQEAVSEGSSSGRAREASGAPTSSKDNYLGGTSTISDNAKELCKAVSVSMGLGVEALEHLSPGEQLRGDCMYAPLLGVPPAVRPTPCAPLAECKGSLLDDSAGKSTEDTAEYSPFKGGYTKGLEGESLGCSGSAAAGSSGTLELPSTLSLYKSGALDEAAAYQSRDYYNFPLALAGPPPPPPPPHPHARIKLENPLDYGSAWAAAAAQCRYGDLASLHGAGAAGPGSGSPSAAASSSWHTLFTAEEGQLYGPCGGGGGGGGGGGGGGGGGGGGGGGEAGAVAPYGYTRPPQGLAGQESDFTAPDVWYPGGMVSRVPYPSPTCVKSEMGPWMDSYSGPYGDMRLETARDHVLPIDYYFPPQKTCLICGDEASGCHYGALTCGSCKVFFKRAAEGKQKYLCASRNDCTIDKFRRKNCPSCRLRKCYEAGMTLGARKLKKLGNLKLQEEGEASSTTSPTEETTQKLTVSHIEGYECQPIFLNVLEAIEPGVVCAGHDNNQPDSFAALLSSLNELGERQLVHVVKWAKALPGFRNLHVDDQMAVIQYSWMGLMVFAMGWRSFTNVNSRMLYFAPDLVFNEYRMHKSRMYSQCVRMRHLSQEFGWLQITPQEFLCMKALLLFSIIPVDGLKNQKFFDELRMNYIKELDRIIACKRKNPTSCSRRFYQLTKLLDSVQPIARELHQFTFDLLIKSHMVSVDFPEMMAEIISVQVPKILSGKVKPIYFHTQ
Summary of the method: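 VCaP cells treated with compounds, lysed in RIPA and probed for AR by Western blot with GAPDH loading control. Band intensities normalised to GAPDH; DC50 from curve fit, DC90 calculated from DC50 and Hill slope via four-parameter equation.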

AR protein [2] = assay: Western blotting analysis of AR protein levels in 22RV1 cells, band quantification, DC50/DC90; assay type: cell-based; conditions: prostate cancer 22RV1 cells, 24 h treatment
Method: (§1) The appropriate cell line, e.g., prostate cancer LNCaP, Vcap, or 22RV1 cell line, was treated with Compounds of the Disclosure as indicated. The treated cells were lysed with RIPA buffer. The AR level in the cell lysates was examined by western blotting and a specific AR antibody (ab194196, Abcam, Cambridge, Mass. 02139) with concentration of 1:20,000. GAPDH was used as a loading control.
(§2) Bands were quantified with ImageJ software. The relative numbers of each band obtained from normalization with its corresponding GAPDH level were compared with Prism 8 software. The DC50 values were produced from Prism 8, and the DC90 values were calculated with an equation=Bottom+(Top−Bottom)/(1+10^((Log EC50−X)*HillSlope) based on DC50 and Hillslope values.

AR protein [3] = target: T2, AR protein (Homo sapiens, UniProt P10275, T878A); assay: Western blotting analysis of AR protein levels in LNCaP cells, band quantification, DC50/DC90; assay type: cell-based; conditions: prostate cancer LNCaP cells, 24 h treatment
T2 construct: endogenous in cells; host or cells: LNCaP
T2 sequence (P10275 1-920 T878A): T1 sequence (P10275 1-920) with T878A
Method: as §1, §2

[4] = Mouse PK studies after oral and IV dosing; assay type: in vivo; conditions: for F: PO 3 mg/kg vs IV 1 mg/kg; for AUC(0-t) / clearance / half-life / Vd / Cmax / Tmax: in vivo; for clearance: read-out: IV Cl (converted); for Vd: read-out: IV VSS
Method: The pharmacokinetics of representative Compounds of the Disclosure were determined after oral and IV dosing at the concentrations indicated in mouse (Table 7). […] The vehicles used in these studies are either (i) 10% PEG400+90% PBS (adjusted to pH to 8.0 by 0.5 N NaOH); or (ii) 100% PEG200.

[5] = calculated from DC50 and Hillslope
[6] = VCaP cells, Table 6, read-out: VCaP DC50
[7] = iv, 1 mg/kg, IV, dose 1 mg/kg, read-out: IV AUC(0 − t)
[8] = iv, 1 mg/kg, IV, dose 1 mg/kg, read-out: IV T1/2 (converted)
[9] = po, 3 mg/kg, PO, dose 3 mg/kg, read-out: PO AUC(0 − t)
[10] = po, 3 mg/kg, PO, dose 3 mg/kg, read-out: PO T1/2 (converted)

Compound `C[C@H]1CC2(CCN(c3ccc(C(=O)N4CCN(C5CN(c6ccc7c(c6)C(=O)N(C6CCC(=O)NC6=O)C7=O)C5)CC4)cc3)CC2)CN1c1ccc(C#N)c(Cl)c1` (stereo partly drawn) [Cpd. No. 293, 2-chloro-4-((3S)-8-(4-(4-(1-(2-(2,6-dioxopiperidin-3-yl)-1,3-dioxoisoindolin-5-yl)azetidin-3-yl)piperazine-1-carbonyl)phenyl)-3-methyl-2,8-diazaspiro[4.5]decan-2-yl)benzonitrile] has a DC50 (AR protein [1]; prostate cancer Vcap cells, 24 h treatment) of 0.031 nM, a DC90 (AR protein [1]; prostate cancer Vcap cells, 24 h treatment, calculated from DC50 and Hillslope) of 0.41 nM and a DC50 (AR protein [2]) of 0.14 nM. It also gave a DC90 (AR protein [2]; [5]) of 0.23 nM, a DC50 (AR protein [3]) of 0.3 nM and a DC90 (AR protein [3]; [5]) of 0.33 nM.
Compound `C[C@H]1CC2(CCN(c3ccc(C(=O)N4CCC(CN5CCN(c6ccc7c(c6)C(=O)N(C6CCC(=O)NC6=O)C7=O)CC5)CC4)nn3)CC2)CN1c1ccc(C#N)c(Cl)c1` (stereo partly drawn) [Cpd. No. 489, 2-chloro-4-((3S)-8-(6-(4-((4-(2-(2,6-dioxopiperidin-3-yl)-1,3-dioxoisoindolin-5-yl)piperazin-1-yl)methyl)piperidine-1-carbonyl)pyridazin-3-yl)-3-methyl-2,8-diazaspiro[4.5]decan-2-yl)benzonitrile] has a DC50 (AR protein [1]; [6]) of 1 to 10 nM, an F [4] of 37% and an AUC(0-t) [4, 7] of 2140 ng·h/mL. It also gave a clearance ([4]; iv, 1 mg/kg, IV, dose 1 mg/kg) of 7.33 mL/min/kg, a half-life [4, 8] of 7.45 h and a Vd ([4]; iv, 1 mg/kg, IV, dose 1 mg/kg) of 2.72 L/kg. It also gave a Cmax ([4]; po, 3 mg/kg) of 477 ng/mL, a Tmax ([4]; po, 3 mg/kg) of 1 h and an AUC(0-t) [4, 9] of 2390 ng·h/mL. The half-life [4, 10] was 7.5 h.
In the case of `C[C@H]1CC2(CCN(c3ccc(C(=O)N4CCC(CN5Cc6cc7c(cc6C5)C(=O)N(C5CCC(=O)NC5=O)C7=O)CC4)nn3)CC2)CN1c1ccc(C#N)c(Cl)c1` (stereo partly drawn) [Cpd. No. 496, 2-chloro-4-((3S)-8-(6-(4-((6-(2,6-dioxopiperidin-3-yl)-5,7-dioxo-3,5,6,7-tetrahydropyrrolo[3,4-f]isoindol-2(1H)-yl)methyl)piperidine-1-carbonyl)pyridazin-3-yl)-3-methyl-2,8-diazaspiro[4.5]decan-2-yl)benzonitrile], the DC50 (AR protein [1]; [6]) is reported as < 1 nM, the F [4] is reported as 72% and the AUC(0-t) [4, 7] is reported as 3030 ng·h/mL. It also gave a clearance ([4]; iv, 1 mg/kg, IV, dose 1 mg/kg) of 5.33 mL/min/kg, a half-life [4, 8] of 5.8 h and a Vd ([4]; iv, 1 mg/kg, IV, dose 1 mg/kg) of 1.46 L/kg. The Cmax ([4]; po, 3 mg/kg) was 1420 ng/mL, the Tmax ([4]; po, 3 mg/kg) was 1 h and the AUC(0-t) [4, 9] was 6550 ng·h/mL. It also gave a half-life [4, 10] of 4.1 h.
With `C[C@H]1CC2(CCN(c3ccc(C(=O)N4CCC(N5CCN(c6ccc7c(c6)C(=O)N(C6CCC(=O)NC6=O)C7=O)CC5)CC4)nn3)CC2)CN1c1ccc(C#N)c(Cl)c1` (stereo partly drawn) [Cpd. No. 499, 2-chloro-4-((3S)-8-(6-(4-(4-(2-(2,6-dioxopiperidin-3-yl)-1,3-dioxoisoindolin-5-yl)piperazin-1-yl)piperidine-1-carbonyl)pyridazin-3-yl)-3-methyl-2,8-diazaspiro[4.5]decan-2-yl)benzonitrile] the DC50 (AR protein [1]; [6]) was < 1 nM, the F [4] was 29% and the AUC(0-t) [4, 7] was 1920 ng·h/mL. The clearance ([4]; iv, 1 mg/kg, IV, dose 1 mg/kg) was 8.17 mL/min/kg, the half-life [4, 8] was 3.6 h and the Vd ([4]; iv, 1 mg/kg, IV, dose 1 mg/kg) was 1.73 L/kg. For the same compound, the Cmax ([4]; po, 3 mg/kg) was 404 ng/mL, the Tmax ([4]; po, 3 mg/kg) was 1.3 h and the AUC(0-t) [4, 9] was 1670 ng·h/mL. It also gave a half-life [4, 10] of 2 h.
For `C[C@H]1CC2(CCN(c3ccc(C(=O)N4CCN(C5CCN(c6ccc7c(c6)C(=O)N(C6CCC(=O)NC6=O)C7=O)CC5)CC4)cc3F)CC2)CN1c1ccc(C#N)c(Cl)c1` (stereo partly drawn) [Cpd. No. 522, 2-chloro-4-((3S)-8-(4-(4-(1-(2-(2,6-dioxopiperidin-3-yl)-1,3-dioxoisoindolin-5-yl)piperidin-4-yl)piperazine-1-carbonyl)-2-fluorophenyl)-3-methyl-2,8-diazaspiro[4.5]decan-2-yl)benzonitrile], the DC50 (AR protein [1]; [6]) was < 1 nM, the “IV AUC(0 − t)” value ([4]; IV, dose 1 mg/kg) was 1723 ng·h/mL and the “IV Cl” value ([4]; IV, dose 1 mg/kg) was 8.3 mL/min/kg. The “IV T1/2” value ([4]; IV, dose 1 mg/kg) was 8.6 h, the “IV VSS” value ([4]; IV, dose 1 mg/kg) was 4.6 L/kg and the F [4] was 33%. The “PO AUC(0 − t)” value ([4]; PO, dose 3 mg/kg) was 1731 ng·h/mL, the “PO Cmax” value ([4]; PO, dose 3 mg/kg) was 196 ng/mL and the “PO T1/2” value ([4]; PO, dose 3 mg/kg) was 6.0 h. For the same compound, the “PO Tmax” value ([4]; PO, dose 3 mg/kg) was 2.0 h.
In the case of `C[C@H]1CC2(CCN(c3cnc(C(=O)N4CCC(N5CCN(c6ccc7c(c6)C(=O)N(C6CCC(=O)NC6=O)C7=O)CC5)CC4)cn3)CC2)CN1c1ccc(C#N)c(Cl)c1` (stereo partly drawn) [Cpd. No. 497, 2-chloro-4-((3S)-8-(5-(4-(4-(2-(2,6-dioxopiperidin-3-yl)-1,3-dioxoisoindolin-5-yl)piperazin-1-yl)piperidine-1-carbonyl)pyrazin-2-yl)-3-methyl-2,8-diazaspiro[4.5]decan-2-yl)benzonitrile], the DC50 (AR protein [1]; [6]) is reported as < 1 nM, the F [4] is reported as 30% and the AUC(0-t) [4, 7] is reported as 849 ng·h/mL. It also gave a clearance ([4]; iv, 1 mg/kg, IV, dose 1 mg/kg) of 18.8 mL/min/kg, a half-life [4, 8] of 2.7 h and a Vd ([4]; iv, 1 mg/kg, IV, dose 1 mg/kg) of 2 L/kg. The Cmax ([4]; po, 3 mg/kg) was 336 ng/mL, the Tmax ([4]; po, 3 mg/kg) was 0.5 h and the AUC(0-t) [4, 9] was 760 ng·h/mL. For the same compound, the half-life [4, 10] was 2 h.
With `C[C@H]1CC2(CCN(c3ccc(C(=O)N4CCC(N5CCN(c6ccc7c(c6)C(=O)N(C6CCC(=O)NC6=O)C7=O)CC5)CC4)cc3F)CC2)CN1c1ccc(C#N)c(Cl)c1` (stereo partly drawn) [Cpd. No. 511, 2-chloro-4-((3S)-8-(4-(4-(4-(2-(2,6-dioxopiperidin-3-yl)-1,3-dioxoisoindolin-5-yl)piperazin-1-yl)piperidine-1-carbonyl)-2-fluorophenyl)-3-methyl-2,8-diazaspiro[4.5]decan-2-yl)benzonitrile] the DC50 (AR protein [1]; [6]) was < 1 nM, the F [4] was 28% and the AUC(0-t) [4, 7] was 9040 ng·h/mL. For the same compound, the clearance ([4]; iv, 1 mg/kg, IV, dose 1 mg/kg) was 1.67 mL/min/kg, the half-life [4, 8] was 8 h and the Vd ([4]; iv, 1 mg/kg, IV, dose 1 mg/kg) was 0.9 L/kg. For the same compound, the Cmax ([4]; po, 3 mg/kg) was 668 ng/mL, the Tmax ([4]; po, 3 mg/kg) was 2.7 h and the AUC(0-t) [4, 9] was 7520 ng·h/mL. It also gave a half-life [4, 10] of 6.4 h.
